Source: patent publication US20220281848A1, “PYRAZOLE-SUBSTITUTED PYRROLIDINONES AS HERBICIDES” (FMC Corporation, priority 2019, published 2022)

Tests used:
plants = assay: Test D post-emergence, other plants of Tables D2 and D4; format: in vivo; conditions: for damage to plant (100=total damage to plant; 0=no damage to plant), ABUTH / damage to plant (100=total damage to plant; 0=no damage to plant), AMARE / damage to plant (100=total damage to plant; 0=no damage to plant), BIDPI / damage to plant (100=total damage to plant; 0=no damage to plant), BRAPL / damage to plant (100=total damage to plant; 0=no damage to plant), CYPES / damage to plant (100=total damage to plant; 0=no damage to plant), DIGSA / damage to plant (100=total damage to plant; 0=no damage to plant), ECHCG / damage to plant (100=total damage to plant; 0=no damage to plant), ELEIN / damage to plant (100=total damage to plant; 0=no damage to plant), EPHHL / damage to plant (100=total damage to plant; 0=no damage to plant), GLXMA / damage to plant (100=total damage to plant; 0=no damage to plant), IPOHE / damage to plant (100=total damage to plant; 0=no damage to plant), ORYSA / damage to plant (100=total damage to plant; 0=no damage to plant), PANMI / damage to plant (100=total damage to plant; 0=no damage to plant), SETFA / damage to plant (100=total damage to plant; 0=no damage to plant), SIDSP / damage to plant (100=total damage to plant; 0=no damage to plant), SORVU: post-emergence
Outline: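 Damage was rated visually from 0 (none) to 100 (total), at 20 DAA for pre-emergence and 15 d for post-emergence. Plants grew from safener-treated seed in a glasshouse at 24/18° C. or 20/16° C. day/night, 65% humidity, watered twice daily.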

[1] = system: velvetleaf (Abutilon theophrasti, ABUTH); assay: Test A post-emergence, velvetleaf; format: in vivo; conditions: after 13 d
Outline: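 Plants sown in standard soil were grown 8 d in a glasshouse (24/16 °C day/night, 14 h light, 65% humidity), then sprayed with compound in acetone/water (50:50) with 0.5% Tween 20 at 15.625, 62.5 or 250 g/ha. Damage was scored after 13 d (0 = none, 100 = total).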

## CCn1nc([C@@H]2CN(C)C(=O)[C@H]2C(=O)Nc2cccc(F)c2F)c2cccc(F)c21 [Compound 14]
plants; VERPE, "Cereals" Postemergent, Rates 500, evaluated after 15 d
  VERPE damage rating (100=total damage to plant; 0=no damage to plant): 60
plants; rate 130, evaluated after 15 d
  damage to plant (100=total damage to plant; 0=no damage to plant), ABUTH: 0
  damage to plant (100=total damage to plant; 0=no damage to plant), AMARE: 0
  damage to plant (100=total damage to plant; 0=no damage to plant), BIDPI: 10
  damage to plant (100=total damage to plant; 0=no damage to plant), BRAPL: 80
  damage to plant (100=total damage to plant; 0=no damage to plant), CYPES: 0
  damage to plant (100=total damage to plant; 0=no damage to plant), DIGSA: 60
  damage to plant (100=total damage to plant; 0=no damage to plant), ELEIN: 0
  damage to plant (100=total damage to plant; 0=no damage to plant), EPHHL: 20
  damage to plant (100=total damage to plant; 0=no damage to plant), GLXMA: 0
  damage to plant (100=total damage to plant; 0=no damage to plant), IPOHE: 0
  damage to plant (100=total damage to plant; 0=no damage to plant), ORYSA: 0
  damage to plant (100=total damage to plant; 0=no damage to plant), PANMI: 0
  damage to plant (100=total damage to plant; 0=no damage to plant), SETFA: 70
  damage to plant (100=total damage to plant; 0=no damage to plant), SIDSP: 0
  damage to plant (100=total damage to plant; 0=no damage to plant), SORVU: 0
plants; rate 250, evaluated after 15 d
  damage to plant (100=total damage to plant; 0=no damage to plant), ABUTH: 0
  damage to plant (100=total damage to plant; 0=no damage to plant), AMARE: 0
  damage to plant (100=total damage to plant; 0=no damage to plant), BIDPI: 20
  damage to plant (100=total damage to plant; 0=no damage to plant), BRAPL: 70
  damage to plant (100=total damage to plant; 0=no damage to plant), CYPES: 0
  damage to plant (100=total damage to plant; 0=no damage to plant), DIGSA: 70
  damage to plant (100=total damage to plant; 0=no damage to plant), ECHCG: 80
  damage to plant (100=total damage to plant; 0=no damage to plant), ELEIN: 0
  damage to plant (100=total damage to plant; 0=no damage to plant), EPHHL: 30
  damage to plant (100=total damage to plant; 0=no damage to plant), GLXMA: 0
  damage to plant (100=total damage to plant; 0=no damage to plant), IPOHE: 10
  damage to plant (100=total damage to plant; 0=no damage to plant), ORYSA: 0
  damage to plant (100=total damage to plant; 0=no damage to plant), PANMI: 0
  damage to plant (100=total damage to plant; 0=no damage to plant), SETFA: 70
  damage to plant (100=total damage to plant; 0=no damage to plant), SIDSP: 0
  damage to plant (100=total damage to plant; 0=no damage to plant), SORVU: 0
plants; rate 500, evaluated after 15 d
  damage to plant (100=total damage to plant; 0=no damage to plant), ABUTH: 10
  damage to plant (100=total damage to plant; 0=no damage to plant), AMARE: 30
  damage to plant (100=total damage to plant; 0=no damage to plant), BIDPI: 30
  damage to plant (100=total damage to plant; 0=no damage to plant), BRAPL: 80
  damage to plant (100=total damage to plant; 0=no damage to plant), CYPES: 0
  damage to plant (100=total damage to plant; 0=no damage to plant), DIGSA: 70
  damage to plant (100=total damage to plant; 0=no damage to plant), ECHCG: 80
  damage to plant (100=total damage to plant; 0=no damage to plant), ELEIN: 0
  damage to plant (100=total damage to plant; 0=no damage to plant), EPHHL: 50
  damage to plant (100=total damage to plant; 0=no damage to plant), GLXMA: 0
  damage to plant (100=total damage to plant; 0=no damage to plant), IPOHE: 20
  damage to plant (100=total damage to plant; 0=no damage to plant), ORYSA: 0
  damage to plant (100=total damage to plant; 0=no damage to plant), PANMI: 0
  damage to plant (100=total damage to plant; 0=no damage to plant), SETFA: 70
  damage to plant (100=total damage to plant; 0=no damage to plant), SIDSP: 30
  damage to plant (100=total damage to plant; 0=no damage to plant), SORVU: 20
[1]; Post-Emergence at 15.625 g/ha
  damage to plant (100=total damage; 0=no damage) ABUTH: 0
[1]; Post-Emergence at 62.5 g/ha
  damage to plant (100=total damage; 0=no damage) ABUTH: 0
[1]; Post-Emergence at 250 g/ha
  damage to plant (100=total damage; 0=no damage) ABUTH: 0
